For data set [1], the system named is Escherichia coli ATCC 25922. As to conditions: ATCC 25922. The essentials: (§1)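 Two-fold serial dilutions of peptide, in water with polysorbate 80 (0.002% final), met bacteria adjusted to 0.5 McFarland then diluted to about 5×10^5 CFU/mL. Medium was cation-adjusted Mueller-Hinton II broth; peptide stocks were 1 mg/mL in sterile water.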
Data set [2] relates to Escherichia coli MCR-1 Af 45. As to conditions: MCR-1 Af 45. An outline of the steps:
as §1

Data set [3] deals with Klebsiella pneumoniae SSI3010. As to conditions: SSI3010. The essentials:
as §1

For data set [4], the system named is human red blood cells (hRBC). The experiment in a line: Hemolysis of human red blood cells. It is filed as cell-based. As to conditions: red cells of human, 1 h. An outline of the steps:
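PBS-washed human red blood cells (20% v/v) were incubated with peptide at 200 μg/mL for 1 h at 37 °C with shaking. Supernatant OD was read at 540 nm after 8-fold dilution. Hemolysis is expressed as percent of the water control.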

Bridge positions count the residues as written; N and C are the ends. Square brackets hold non-standard residues; d marks the D form. Peptide text beside a SMILES is read from it. Gly(N(CH2)3NH2) = NCCCNCC(=O)O; Pen = CC(C)(S)[C@H](N)C(=O)O; dDab = NCC[C@@H](N)C(=O)O; Dab = NCC[C@H](N)C(=O)O; Nlys = NCCCCNCC(=O)O

On to `CC[C@H](C)[C@H](NC(=O)[C@@H](NC(=O)[C@@H]1CCCN1C(=O)[C@@H](NC(=O)CNC)C(C)C)[C@@H](C)CC)C(=O)N[C@@H](Cc1ccc(O)cc1)C(=O)N[C@H]1CSSC[C@@H](C(=O)N[C@@H](CCN)C(=O)N[C@@H](CCCNC(=N)N)C(=O)N[C@@H](Cc2ccc(O)cc2)C(=O)O)NC(=O)[C@H](CCCCN)NC(=O)[C@@H](CCN)NC(=O)[C@H]([C@@H](C)O)NC(=O)[C@H](CCN)NC(=O)[C@H](CCCNC(=N)N)NC(=O)[C@H](CC(N)=O)NC1=O` [Example 30] (HELM PEPTIDE1{[Sar].V.P.I.I.Y.C.N.R.[Dab].T.[NCC[C@@H](N[*:1])C(=O)[*:2]].K.C.[Dab].R.Y}$PEPTIDE1,PEPTIDE1,7:R3-14:R3$$$V2.0), for which, in data set [1], the “Escherichia coli ATCC 25922 MIC” value was found to be 0.125 µg/mL. Besides, the “Escherichia coli MCR-1 Af 45 MIC” value in data set [2] is 0.125 µg/mL. The “Klebsiella pneumoniae SSI3010 MIC” value in data set [3] came to 0.25 µg/mL. In addition, in data set [4], the “Hemolysis at 0.2 g/L” value stood at 0%.

Regarding `CC[C@H](C)[C@H](NC(=O)CN(CCCCN)C(=O)[C@@H](NC(=O)CNCCCCN)C(C)C)C(=O)N[C@H](C(=O)N[C@@H](Cc1ccc(O)cc1)C(=O)N[C@@H]1C(=O)N[C@@H](CC(N)=O)C(=O)N[C@@H](CCCNC(=N)N)C(=O)N[C@@H](CCN)C(=O)N[C@@H]([C@@H](C)O)C(=O)N[C@H](CCN)C(=O)N[C@@H](CCCCN)C(=O)N[C@H](C(=O)N[C@@H](CCN)C(=O)N[C@@H](CCCNC(=N)N)C(=O)N[C@@H](Cc2ccc(O)cc2)C(=O)O)CSSC1(C)C)[C@@H](C)CC` [Example 31, Nlys-Val-Nlys-Ile-Ile-Tyr-Pen-Asn-Arg-Dab-Thr-^DDab-Lys-Cys-Dab-Arg-Tyr] (H-[Nlys]V[Nlys]IIY[Pen]NR[Dab]T[dDab]KC[Dab]RY-OH; disulfide 7-14), the “Escherichia coli ATCC 25922 MIC” value in data set [1] stood at 0.125 µg/mL. In addition, in data set [2], the “Escherichia coli MCR-1 Af 45 MIC” value was 0.0625 µg/mL. The “Klebsiella pneumoniae SSI3010 MIC” value in data set [3] is 0.25 µg/mL. In addition, the “Hemolysis at 0.2 g/L” value in data set [4] was determined as 0%.

Consider `CC[C@H](C)[C@H](NC(=O)CN(CCCN)C(=O)[C@@H](NC(=O)CNCCCN)C(C)C)C(=O)N[C@H](C(=O)N[C@@H](Cc1ccc(O)cc1)C(=O)N[C@@H]1C(=O)N[C@@H](CC(N)=O)C(=O)N[C@@H](CCCNC(=N)N)C(=O)N[C@@H](CCN)C(=O)N[C@@H]([C@@H](C)O)C(=O)N[C@H](CCN)C(=O)N[C@@H](CCCCN)C(=O)N[C@H](C(=O)N[C@@H](CCN)C(=O)N[C@@H](CCCNC(=N)N)C(=O)N[C@@H](Cc2ccc(O)cc2)C(=O)O)CSSC1(C)C)[C@@H](C)CC` [Example 32, Norn-Val-Norn-Ile-Ile-Tyr-Pen-Asn-Arg-Dab-Thr-^DDab-Lys-Cys-Dab-Arg-Tyr] (H-[Gly(N(CH2)3NH2)]V[Gly(N(CH2)3NH2)]IIY[Pen]NR[Dab]T[dDab]KC[Dab]RY-OH; disulfide 7-14), for which the “Escherichia coli ATCC 25922 MIC” value in data set [1] came to 0.125 µg/mL. Further, the “Escherichia coli MCR-1 Af 45 MIC” value in data set [2] came out at 0.0625 µg/mL. Further, the “Klebsiella pneumoniae SSI3010 MIC” value in data set [3] was 0.125 µg/mL. In data set [4], the “Hemolysis at 0.2 g/L” value was found to be 0%.

Consider `CC[C@H](C)[C@H](NC(=O)[C@@H]1C[C@@H](O)CN1C(=O)[C@@H](NC(=O)CNCCCN)C(C)C)C(=O)N[C@H](C(=O)N[C@@H](Cc1ccc(O)cc1)C(=O)N[C@@H]1C(=O)N[C@@H](CC(N)=O)C(=O)N[C@@H](CCCNC(=N)N)C(=O)N[C@@H](CCN)C(=O)N[C@@H]([C@@H](C)O)C(=O)N[C@H](CCN)C(=O)N[C@@H](CCCCN)C(=O)N[C@H](C(=O)N[C@@H](CCN)C(=O)N[C@@H](CCCNC(=N)N)C(=O)N[C@@H](Cc2ccc(O)cc2)C(=O)O)CSSC1(C)C)[C@@H](C)O` [Example 33, Norn-Val-Hyp-Ile-Thr-Tyr-Pen-Asn-Arg-Dab-Thr-^DDab-Lys-Cys-Dab-Arg-Tyr] (HELM PEPTIDE1{[NCCCNCC(=O)[*:2]].V.[Hyp].I.T.Y.[Pen].N.R.[Dab].T.[NCC[C@@H](N[*:1])C(=O)[*:2]].K.C.[Dab].R.Y}$PEPTIDE1,PEPTIDE1,7:R3-14:R3$$$V2.0), for which, in data set [1], the “Escherichia coli ATCC 25922 MIC” value was 0.125 µg/mL. In addition, the “Escherichia coli MCR-1 Af 45 MIC” value in data set [2] is 0.125 µg/mL. In addition, the “Klebsiella pneumoniae SSI3010 MIC” value in data set [3] is 0.25 µg/mL. Besides, the “Hemolysis at 0.2 g/L” value in data set [4] stood at 0%.

For the origin of these results see patent US20230295234A1, “ANTIMICROBIAL PEPTIDOMIMETICS” (SPEXIS AG, priority 2020, published 2023).
